Like-named read-outs stand apart in the source and are kept apart here.
Biological target: T1, GAβ-dependent amyloid fibril formation (Human Aβ1-40 + GM1-containing liposome) (Homo sapiens, UniProt P05067)
T1 construct: Human Aβ1-40 (cat. #4307-v, prepared by Peptide Institute); purchased Peptide Institute 4307-v
Assay: Thioflavin T (ThT) assay of GAβ-dependent amyloid fibril formation (Aβ1-40 with GM1-containing liposome)
Assay type: biochemical
Method: <3. Evaluation of the Compounds Based on the Inhibitory Activity Against Amyloid Fibril Formation in Thioflabin T (ThT) Assay>
Inhibitory activity against GAβ-dependent amyloid fibril formation of the above compounds 1 to 133 and 142 to 267 were evaluated in ThT assay.
(1) Preparation of Aβ Solution
Human Aβ1-40 (cat. #4307-v, prepared by Peptide Institute) was dissolved in a 0.02% ammonia solution (400 μM), and the mixture was treated in an ultracentrifuge (S110AT rotor, Hitachi) at 100,000 rpm for 3 hours. Approximately two-thirds of the upper layer of the supernatant was recovered and protein concentration was measured. The Aβ solution was aliquoted and stored at −80° C. until use, was melted immediately before use, and was diluted to 75 μM using phosphate buffer (PBS: cat. #10010, manufactured by Life Technologies).
(2) Preparation of GM1-Containing Liposome
Using a mixed solution of chloroform/methanol (1:1) as a solvent, a mixed solution of 100 mM each of cholesterol and sphingomyelin (both manufactured by Sigma-Aldrich) was prepared. To this mixed solution, GM 1 (cat. #1061, manufactured by Matreya Co.) was dissolved to make a solution of 50 mM concentration. This lipid mixed solution was aliquoted into glass test tubes and stored at −20° C. until use, was melted before use, was mixed with chloroform/methanol mixture (1:1) and mixed, and then the solvent was removed by applying nitrogen gas to the suspension. The dried lipid mixture was resuspended in PBS to be a GM1 concentration of 2.5 mM, and frozen and thawed 5 times with liquid nitrogen. The lipid suspension was centrifuged at 15,000 rpm for 10 minutes and the precipitate was resuspended in PBS to be a GM1 concentration of 2.5 mM. Using an ultrasonic crusher (XL-2000, MISONIX Co., Ltd.) equipped with a microchip, ultrasonic treatment was repeated on ice for 10 seconds until the suspension became transparent, and GM1-containing liposome was prepared. Immediately prior to use, PBS was added and diluted to a GM 1 concentration of 75 μM.
(3) Preparation of Compound Solution
Compounds 1 to 133 and 142 to 267 were prepared as 10 mM and 2 mM solution in DMSO, respectively. And each solution was diluted to 75 μM or 15 μM with PBS immediately prior to use.
(4) GAβ-Dependent Amyloid Fibril Formation
To a 96-well microplate, 5 μl each of the 75 μM Aβ solution prepared above (1), the compound solution prepared in (3) or 0.75% DMSO was mixed and incubated at room temperature for 10 minutes. Then, 5 μl each of 750 μM GM1-containing liposome prepared in (2) was added to each well and incubated at 37° C. for 18 hours.
ThT (manufactured by Sigma-Aldrich) was adjusted to 5 μM using 50 mM glycine-NaOH buffer (pH 8.5). Immediately before measurement, 10 μl from each well of (4) was transferred to a 96-well black plate. 50 μl of 5 μM ThT solution was added from each injector to each well using a multi-plate reader (ARVO-HTS, manufactured by Perkin Elmer), and then the optimal fluorescence of ThT bound to amyloid fiber (excitation wavelength 430 nm, fluorescence wavelength 490 nm) was measured.
The fluorescence intensity of ThT indicates the degree of amyloid fibrils formation. By calculating the ratio of the ThT fluorescence intensity between addition of the compound and without addition of the compound, the inhibition rate against amyloid fibril formation by the compound was calculated.

[1] = inhibition rate against amyloid fibril formation, final concentration of the compound 25 μM, read-out: Inhibitory activity ABC evaluation
[2] = read-out: ThT Inhibitory activity (% inhibition)
[3] = @25 μM, read-out: ThT Inhibitory activity (% inhibition)

T1 sequence (P05067 672-711 limits assumed): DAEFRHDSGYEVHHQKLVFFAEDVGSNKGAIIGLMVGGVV

## O=C(N[C@@H](CO)c1nc(-c2ccc(CF)cc2)no1)c1ccc(F)cc1 [Compound 161, 4-fluoro-N-[(1S)-1-{3-[4-(fluoromethyl)phenyl]-1,2,4-oxadiazol-5-yl}-2-hydroxyethyl] benzamide]
[1]
  inhibition at 25 µM: 40 to 80%

## O=C(N[C@@H](CO)c1nc(-c2c[nH]c3ccc(Cl)cc23)no1)c1ccc(F)cc1 [Compound 233, N-[(1S)-1-[3-(5-chloro-1H-indol-3-yl)-1,2,4-oxadiazol-5-yl]-2-hydroxyethyl]-4-fluorobenzamide]
[1]
  inhibition at 25 µM: 40 to 80%

## O=C(N[C@@H](CO)c1nc(-c2cc3ccccc3s2)no1)c1ccc(F)cc1 [Compound 232, N-[(1S)-1-[3-(1-benzothiophen-2-yl)-1,2,4-oxadiazol-5-yl]-2-hydroxyethyl]-4-fluorobenzamide]
[1]
  inhibition at 25 µM: > 80%

## O=C(N[C@@H](CO)c1nc(-c2ccc(C(F)(F)F)cc2)no1)c1ccccc1 [Compound 130, (S)-N-(2-hydroxy-1-(3-(4-(trifluoro-methyl)phenyl)-1,2,4-oxadiazol-5-yl)ethyl)benzamide]
[2]
  inhibition at 5 µM: 67%
[3]
  inhibition at 25 µM: 85%
[1]
  inhibition at 25 µM: > 80%

## O=C(N[C@@H](CO)c1nc(-c2c[nH]c3cc(Cl)ccc23)no1)c1ccc(F)cc1 [Compound 263, N-[(1S)-1-[3-(6-chloro-1H-indol-3-yl)-1,2,4-oxadiazol-5-yl]-2-hydroxyethyl]-4-fluorobenzamide]
[1]
  inhibition at 25 µM: 40 to 80%

## O=C1CC(c2nc(-c3ccc(OC(F)(F)F)cc3)no2)CN1c1ccc(Cl)cc1 (stereo not drawn) [Compound 23, l-(4-chlorophenyl)-4-[3-{4-(trifluoromethoxy)phenyl}-1,2,4-oxadiazol-5-yl]pyrrolidin-2-one]
[1]
  inhibition at 25 µM: 40 to 80%

## O=C(Cc1ccc(F)cc1)NC(CO)c1nc(-c2ccc(C(F)(F)F)cc2)no1 (stereo not shown) [Compound 187, 2-(4-fluorophenyl)-N-(2-hydroxy-1-{3-[4-(trifluoromethyl)phenyl]-1,2,4-oxadiazol-5-yl}ethyl)acetamide]
[1]
  inhibition at 25 µM: 40 to 80%

## O=S(=O)(N[C@@H](CO)c1nc(-c2ccc(OC(F)(F)F)cc2)no1)c1cccc(Cl)c1 [Compound 91, (S)-3-chloro-N-(2-hydroxy-1-[3-{4-(trifluoromethoxy)phenyl}-1,2,4-oxadiazol-5-yl]ethyl)benzenesulfonamide]
[1]
  inhibition at 25 µM: 40 to 80%

## O=C(N[C@@H](CO)c1nc(-c2ccccc2C(F)(F)F)no1)c1ccccc1 [Compound 189, N-[(1S)-2-hydroxy-1-{3-[2-(trifluoromethyl)phenyl]-1,2,4-oxadiazol-5-yl}ethyl]benzamide]
[1]
  inhibition at 25 µM: 40 to 80%

## O=C(N[C@@H](CO)c1nc(-c2cccc(C(F)(F)F)c2)no1)c1cc(F)cc(Cl)c1 [Compound 222, 3-chloro-5-fluoro-N-[(1S)-2-hydroxy-1-{3-[3-(trifluoromethyl)phenyl]-1,2,4-oxadiazol-5-yl}ethyl]benzamide]
[1]
  inhibition at 25 µM: > 80%

## O=C(NC1(c2nc(-c3ccc(OC(F)(F)F)cc3)no2)CCCC1)c1ccc(Cl)cc1 [Compound 29, 4-chloro-N-(1-[3-{4-(trifluoromethoxy)phenyl}-1,2,4-oxadiazol-5-yl]cyclopentyl) benzamide]
[1]
  inhibition at 25 µM: < 40%

## CC(C)(NC(=O)c1ccc(Cl)cc1)c1nc(-c2ccc(OC(F)(F)F)cc2)no1 [Compound 20, 4-chloro-N-(2-[3-{4-(trifluoromethoxy)phenyl}-1,2,4-oxadiazol-5-yl]propan-2-yl)benzamide]
[1]
  inhibition at 25 µM: 40 to 80%

## COc1ccc(-c2noc(C3CC(=O)N(c4ccc(Cl)cc4)C3)n2)cn1 (stereo not shown) [Compound 54, 1-(4-chlorophenyl)-4-{3-(6-methoxy-pyridin-3-yl)-1,2,4-oxadiazol-5-yl}pyrrolidin-2-one]
[1]
  inhibition at 25 µM: 40 to 80%

## O=C(N[C@@H](CCO)c1nc(-c2ccc(OC(F)(F)F)cc2)no1)c1ccc(Cl)cc1 [Compound 75, (S)-4-chloro-N-(3-hydroxy-1-[3-{4-(trifluoro-methoxy)phenyl}-1,2,4-oxadiazol-5-yl]propyl) benzamide]
[1]
  inhibition at 25 µM: 40 to 80%

## O=C(N[C@@H](CO)c1nc(-c2ccc(C(F)(F)F)s2)no1)c1ccc(F)cc1 [Compound 210, 4-fluoro-N-[(1S)-2-hydroxy-1-{3-[5-(trifluoromethyl)thiophen-2-yl]-1,2,4-oxadiazol-5-yl}ethyl] benzamide]
[1]
  inhibition at 25 µM: > 80%

## O=C(N[C@@H](CO)c1nnc(-c2ccc(OC(F)(F)F)cc2)o1)c1ccc(F)cc1 [Compound 112, (S)-4-fluoro-N-(2-hydroxy-1-(5-(4-(tri-fluoromethoxy)phenyl)-1,3,4-oxadiazol-2-yl)ethyl)benzamide]
[1]
  inhibition at 25 µM: 40 to 80%

## NC(Cc1c[nH]c2ccccc12)c1nc(-c2ccc3c(c2)OC(F)(F)O3)no1 (stereo not shown) [Compound 40, 1-{3-(2,2-difluorobenzo[d] [1,3]dioxol-5-yl)-1,2,4-oxadiazol-5-yl}-2-(1H-indol-3-yl)ethan-1-amine]
[2]
  inhibition at 5 µM: 38%
[3]
  inhibition at 25 µM: 80%
[1]
  inhibition at 25 µM: > 80%

## O=C(N[C@@H](CO)c1nc(-c2ccc(C(F)(F)F)cc2)no1)c1ccc(F)c(Cl)c1 [Compound 195, 3-chloro-4-fluoro-N-[(1S)-2-hydroxy-1-{3-[4-(trifluoromethyl)phenyl]-1,2,4-oxadiazol-5-yl}ethyl]benzamide]
[1]
  inhibition at 25 µM: > 80%

## O=C(N[C@@H](CO)c1nc(-c2ccc(OC(F)(F)F)cc2)no1)c1ccccc1 [Compound 92, (S)-N-(2-hydroxy-1-[3-{4-(tri-fluoromethoxy)phenyl}-1,2,4-oxadiazol-5-yl]ethyl)benzamide]
[2]
  inhibition at 5 µM: 51%
[3]
  inhibition at 25 µM: 81%
[1]
  inhibition at 25 µM: > 80%

## COc1ccc2nc(-c3noc([C@H](CO)NC(=O)c4ccc(F)cc4)n3)sc2c1 [Compound 235, 4-fluoro-N-[(1S)-2-hydroxy-1-[3-(6-methoxy-1,3-benzothiazol-2-yl)-1,2,4-oxadiazol-5-yl]ethyl]benzamide]
[3]
  inhibition at 25 µM: 63%
[1]
  inhibition at 25 µM: 40 to 80%

## O=C1CC(c2nc(-c3ccc(OC(F)(F)F)cc3)ns2)CN1c1ccc(Cl)cc1 (stereo not shown) [Compound 121, 1-(4-chlorophenyl)-4-{3-[4-(trifluoromethoxy)phenyl]-1,2,4-thiadiazol-5-yl}pyrrolidin-2-one]
[1]
  inhibition at 25 µM: 40 to 80%

## O=C(N[C@@H](CO)c1nc(-c2ccc(C(F)(F)F)cc2)no1)C1CC(=O)N(c2ccc(Cl)cc2)C1 (stereo partly drawn) [Compound 193, 1-(4-chlorophenyl)-N-[(1S)-2-hydroxy-1-{3-[4-(trifluoromethyl)phenyl]-1,2,4-oxadiazol-5-yl}ethyl]-5-oxopyrrolidine-3-carboxamide]
[1]
  inhibition at 25 µM: 40 to 80%

## COc1ccc(-c2noc([C@@H](N)Cc3c[nH]c4ccccc34)n2)cc1 [Compound 18, (S)-2-(1H-indol-3-yl)-1-{3-(4-methoxyphenyl)-1,2,4-oxadiazol-5-yl}ethan-1-amine]
[3]
  inhibition at 25 µM: 86%
[1]
  inhibition at 25 µM: > 80%

## O=C(N[C@@H](CO)c1nc(-c2ccc(C(F)(F)F)cc2)no1)c1ccc(OC(F)(F)F)cc1 [Compound 199, N-[(1S)-2-hydroxy-1-{3-[4-(trifluoromethyl)phenyl]-1,2,4-oxadiazol-5-yl}ethyl]-4-(trifluoromethoxy) benzamide]
[1]
  inhibition at 25 µM: > 80%

## O=C(N[C@@H](CO)c1nc(-c2ccc3[nH]ccc3c2)no1)c1ccc(F)cc1 [Compound 175, 4-fluoro-N-[(1S)-2-hydroxy-1-[3-(1H-indol-5-yl)-1,2,4-oxadiazol-5-yl]ethyl] benzamide]
[1]
  inhibition at 25 µM: > 80%

## O=C(N[C@@H](CO)c1nc(-c2nc3ccc(O)cc3s2)no1)c1ccc(F)cc1 [Compound 259, 4-fluoro-N-[(1S)-2-hydroxy-1-[3-(6-hydroxy-1,3-benzothiazol-2-yl)-1,2,4-oxadiazol-5-yl]ethyl] benzamide]
[1]
  inhibition at 25 µM: 40 to 80%
